Source: US6673812B1, “Preventives/remedies for glaucoma” (Senju Pharmaceutical Co., Ltd., priority 1998, dated 2004)

Experiments:
Japanese white rabbits [1] = test: Effect on blood flow of normal optic disc of white rabbits; format: in vivo, rabbit; conditions: 0.1% eye drop
Protocol: In this experiment, 0.1% eye drop containing Compound A (prepared in Example 2) and 0.1% eye drop containing Compound C (prepared in Example 5) were used.
Japanese white rabbits (body weight about 2 kg) purchased from Japan Laboratory Animals, INC. were used. These animals were bred in a breeding chamber set to temperature 23±3° C., humidity 55±10% and fed on limited amount of 100 g a day of a solid feed (Labo R Stock, Nihon-Nosan Kogyo K.K.). They were allowed free access to tap water. In the same manner as in Example 4, each test drug was administered. Using laser speckle microcirculation analyzer, the blood flow of optic disc was measured at 30, 60, 90, 120, 150 and 180 min after instillation and thereafter at one hour intervals till 300 min after the instillation.

[2] = tested on: extracted ciliary muscle of white rabbit; test: Effect on carbachol contraction of extracted ciliary muscle of white rabbit (Magnus bath); format: cell-based
Protocol: Male Japanese white rabbits (body weight about 2 kg) were euthanized by intravenous administration of an excess pentobarbital sodium. The eyeball was enucleated immediately thereafter and preserved in a Krebs solution (NaCl:112 mM, KC1:5.9 mM, CaCl2 2H2O:2.0 mM, MgCl2 6H2O:1.2 mM, NaH2PO4 2H2O:1.2 mM, NaHCO3:25 mM, Glucose:11.5 mM). The ciliary body separated from the eyeball was hung in a Magnus bath filled with the Krebs solution and equilibrated under a 20-30 mg resting tension. The changes in the tension of the preparation was measured with a transducer and recorded on a pen recorder via an amplifier. As the contraction drug, carbachol was used, and the inhibitory action on the dose dependent response of phasic contraction was studied. The test drug was (+)-trans-4-(1-aminoethyl)-1-(4-pyridylcarbamoyl)cyclohexane 2HCl 1H2O (Compound A), which was added to the Magnus bath 5 min before addition of carbachol.

Japanese white rabbits [3] = test: Effect on normal intraocular pressure of white rabbits; format: in vivo, rabbit; conditions: 20 μl eye drop, 0.1% or 0.03%
Source text: In this experiment, 0.1% eye drop and 0.03% eye drop containing Compound A (each prepared in Example 2 and Example 3), 0.03% eye drop containing Compound B (prepared in Example 4), 0.1% eye drop and 0.03% eye drop containing Compound C (each prepared in Example 5 and Example 6) and 0.03% eye drop containing Compound D (prepared in Example 7) were used.
Japanese white rabbits (body weight about 2 kg) purchased from Japan Laboratory Animals, INC. were used. These animals were bred in a breeding chamber set to temperature 23±3° C., humidity 55±10% and fed on limited amount of 100 g a day of a solid feed (Labo R Stock, Nihon-Nosan Kogyo K.K.). They were allowed free access to tap water. The rabbits were placed in a holding box for 5 hr a day for acclimation from 2 days prior to the test. […] After measurement of the initial value of the intraocular pressure, various eye drops (20 μl) were instilled into one eye, and a base, which was one of various eye drops except the test drug, was instilled into the other eye in the same manner and taken as the control eye.
The intraocular pressure was measured with time at 30, 60, 90, 120, 150 and 180 min after instillation and thereafter at one hour intervals until the intraocular pressure returned to the initial value, and the duration of the effect was examined.

## CC(N)[C@H]1CC[C@H](C(=O)Nc2ccncc2)CC1.Cl.Cl.O (single isomer, unassigned; (+)) [Compound A, (+)-trans-4-(1-Aminoethyl)-1-(4-pyridylcarbamoyl)cyclohexane 2HCl 1H2O]
Japanese white rabbits [1]
  duration of optic disc blood flow increasing effect: more long-lasting
[2]; 10^−6-3×10^−4 M carbachol
  type of antagonism against carbachol contraction: non-competitive antagonism
[2]; ciliary muscle, added 5 min before carbachol, read-out: IC50 against carbachol contraction
  IC50: 2.8 µM
Japanese white rabbits [3]
  character (onset, duration) of intraocular pressure lowering effect: intraocular pressure lowering effect in early stages after instillation
